This is an account of results in patent US8129424B2, “Indole derivatives as histamine 3 receptor inhibitors for the treatment of cognitive and sleep disorders, obesity and other CNS disorders” (Athersys, Inc., priority 2005, dated 2012).

Assay [1] addresses T1, human histamine H3 receptor (Homo sapiens, UniProt Q9Y5N1).
T1 construct: expressed in transfected cells; host or cells: HT1080-Gqαi5 cells (human), pFG8-HH3 RAGE vector integrated; methotrexate-amplified clone RAGE-H3
As to the kind of experiment: Calcium mobilization assay (FLIPR), inhibition of (R)-α-methylhistamine-stimulated Ca2+ flux in RAGE-H3 cells. The format is cell-based. Particulars: determined using FLIPR. How it is done:
(§1) The human histamine H3 receptor was stably expressed in HT1080 cells containing the chimeric G-protein, Gq[…]i5 (Coward et al., Anal Biochem 1999; 270:242-8). HT1080-Gqαi5 cells were grown in alpha-modified MEM containing 10% fetal bovine serum and 7 μg/ml blasticidin at 37° C. in 5% CO2/95% atmosphere. Cells (4.8×10^9) were irradiated with 50 rads from a ^137Cs source and the pFG8-HH3 RAGE (Random Activation of Gene Expression; see Harrington et al., Nature Biotechnology. 2001; 19:440-45) vector was subsequently integrated into the cells via electroporation (250V, 600 μF, 50Ω). The RAGE vector pFG8-HH3 contained cDNA sequence coding for the first exon (83 amino acids) of human H3 receptor. After electroporation, cells were plated in T75 flasks and grown in alpha-modified MEM. The culture medium was replaced 48 hours after electroporation with alpha-modified MEM, 10% fetal bovine serum, 500 μg/ml hygromycin B and 3 μg/ml puromycin. Medium was replaced every four days during cell expansion. To identify RAGE activated cells expressing the H3 receptor, pools of approximately 10,000 colonies (5×10^7-1.5×10^8 cells total) were screened by PCR for the desired gene product (using primers specific to the RAGE vector and exon 2 of the H3 receptor). […] Positive 100 cells/well pools were identified by PCR, confirmed by sequencing, and subsequently subcloned to 0.8 cells/well. Once clones expressing the H3 receptor were identified by PCR analysis, assays (FLIPR or radioligand binding) were performed to confirm that the activated gene produced functional protein. The protein expression in the initial clones obtained from the RAGE library was increased by growth in the presence of methotrexate. Since the integrated RAGE vector contains the DHFR gene, such treatment selects for cells that have amplified the genetic locus containing the RAGE insert. Subclones obtained after methotrexate amplification were tested for functional activity in FLIPR assays to identify the clone that was most suitable for HTS. The final HT1080-Gqαi5 RAGE clone (RAGE-H3) expressing the human histamine H3 receptor was grown in alpha-modified MEM containing 10% fetal bovine serum, 3 μg/ml puromycin, 500 μg/ml hygromycin B, 3.2 μM methotrexate at 37° C. in 5% CO2/95% atmosphere.
RAGE-H3 or HT1080-mH3 cells were seeded in black 384-well plates and incubated overnight at 37° C. in a 5% CO2/95% atmosphere. After removing medium, cells were treated with CsCl Ringer's buffer (136 mM CsCl, 5.4 mM KCl, 5.5 mM D-Glucose, 20 mM Hepes, pH 7.4, 2.1 mM MgCl2, 1.2 mM CaCl2) containing the Calcium 3 dye (Molecular Device, CA) and probenecid (3.75 mM) for 60 minutes, according to manufacture's instruction. Compounds were diluted in CsCl Ringer's buffer containing 0.2% bovine serum albumin and 1.0% DMSO. The dose response of (R)-α-methylhistamine-stimulated Ca^2+ flux was measured on a Fluorometric Imaging Plate Reader (FLIPR, Molecular Devices, CA) and the concentration of (R)-α-methylhistamine to stimulate 75% of maximum response was used to test the inhibitory effect of compounds.
All data were analyzed by nonlinear least squares curve fitting using Prism 4.0 software. The KD and Bmax for [^125I]iodoproxyfan were derived from the equation RL=RtL/(KD+L), where RL is concentration of receptor-bound ligand at equilibrium, L is the free ligand concentration, and Rt is the total receptor concentration (i.e., Bmax). For competition binding experiments, IC50 values (the concentration of compound producing 50% inhibition of specific binding) and Hill Coefficients (nH) were derived from fitting the data to a 4-parameter logistic equation. Apparent Ki values were calculated using the Cheng-Prussof equation of Ki=IC50/(1+(L/KD)), where L is the ligand concentration. […]
On the technique in general: A change in cytosolic calcium serves as a functional read-out for many receptors and channels.

In assay [2] the test system is H3 receptor. The settings on record: in vivo studies; cited from earlier work.
For assay [3], the system named is H3 receptor. Particulars: cat, cited from earlier work.
The target of assay [4] is T2, H3 receptor (Rattus norvegicus, UniProt Q9QYN8).
T2 construct: host or cells: living rats
T2 sequence (Q9QYN8 whole entry): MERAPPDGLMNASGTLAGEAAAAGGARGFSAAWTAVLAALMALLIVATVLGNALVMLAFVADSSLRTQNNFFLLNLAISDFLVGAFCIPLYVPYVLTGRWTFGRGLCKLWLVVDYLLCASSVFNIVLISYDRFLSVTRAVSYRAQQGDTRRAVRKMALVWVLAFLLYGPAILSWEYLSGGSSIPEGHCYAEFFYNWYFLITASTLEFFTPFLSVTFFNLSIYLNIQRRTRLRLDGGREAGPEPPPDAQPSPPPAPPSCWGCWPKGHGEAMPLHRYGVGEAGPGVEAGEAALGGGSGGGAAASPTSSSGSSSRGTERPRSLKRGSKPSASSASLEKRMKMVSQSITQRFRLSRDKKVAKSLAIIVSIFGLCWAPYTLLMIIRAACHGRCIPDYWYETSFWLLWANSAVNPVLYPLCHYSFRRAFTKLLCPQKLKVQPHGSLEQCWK
The settings on record: rats; cited from earlier work.

The conditions of assay [5]: cited from earlier work.
Assay [6] addresses T1, human histamine H3 receptor. Briefly: Radioligand competition binding assay with [125I]iodoproxyfan on RAGE-H3 cell membranes. The settings on record: [125I]iodoproxyfan competition binding, apparent Ki by Cheng-Prussof equation. How it is done:
Representative compounds of the present invention that were prepared by the procedures of Examples 1-41 were evaluated in binding assays against cells expressing human H3 receptor by the following procedure.
as §1
RAGE-H3 cells (10^9) were washed twice with cold PBS, scraped off the plates, and centrifuged at 1000×g for 5 minutes. Cells were resuspended in ice-cold 10 mM Tris HCl, pH 7.4, containing 5 mM EDTA and protease inhibitor cocktail tablets (Roche Molecular Biochemicals). After incubating on ice for 10 minutes, the cells were homogenized with a dounce homogenizer or a polytron tissue grinder, and centrifuged at 1000×g for 10 minutes at 4° C. The resulting supernatant was centrifuged at 32,000×g for 30 minutes at 4° C. The membrane pellets were resuspended in 50 mM Tris HCl, pH 7.4, and stored at −80° C. until use. Protein concentration was determined by the Bradford method (Bio-Rad Laboratories, CA).
Binding assays were carried out in 96-well polypropylene plates in 50 mM Tris HCl, pH 7.4, containing 1 mM EDTA. Reaction mixtures contained 100 μl of membrane suspension, 50 of 4% DMSO, and 50 μl of increasing amounts of [^125I]iodoproxyfan (final concentration 0.0005-1.8 nM for human H3 receptor saturation binding assay). Nonspecific binding was defined by adding 10 μM clobenpropit to the reaction mixtures. Competition binding assays were performed in a reaction mixture containing 100 μl of membrane suspension (˜20 μg of protein/well), 50 μl of [^125I]iodoproxyfan (final concentration of ˜0.15 nM) and 50 μl of test compound. Compounds were dissolved in DMSO and then diluted with 4% DMSO; the final maximal DMSO concentration in the binding assays was 1%. […]
Background: Displacement assays read how much labelled ligand stays bound in the presence of the test substance.

The IC50 is the point on the concentration scale where inhibition reaches its midpoint.

T1 sequence (Q9Y5N1 whole entry): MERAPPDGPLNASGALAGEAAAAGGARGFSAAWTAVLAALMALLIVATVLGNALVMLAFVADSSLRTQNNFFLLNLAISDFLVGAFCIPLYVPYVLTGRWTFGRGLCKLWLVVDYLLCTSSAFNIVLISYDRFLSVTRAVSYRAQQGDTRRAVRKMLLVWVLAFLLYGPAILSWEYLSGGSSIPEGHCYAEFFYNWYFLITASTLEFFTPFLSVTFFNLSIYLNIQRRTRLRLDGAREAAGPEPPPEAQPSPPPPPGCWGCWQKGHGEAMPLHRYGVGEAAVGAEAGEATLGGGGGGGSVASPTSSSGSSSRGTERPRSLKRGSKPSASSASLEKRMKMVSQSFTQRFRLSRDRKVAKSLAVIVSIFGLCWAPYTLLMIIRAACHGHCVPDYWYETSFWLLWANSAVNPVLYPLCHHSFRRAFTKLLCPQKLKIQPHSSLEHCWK

As to `c1ccc2c(c1)ccn2-c1ccc(OCCCN2CCCC2)cc1` [Example 4, 1-[4-(3-Pyrrolidin-1-ylpropoxy)phenyl]-1H-indole], the IC50 in assay [1] is less than 100 nM.
Turning to `COc1ccc2c(c1)cc(C)n2-c1ccc(C#CCCN2CCCC2)cc1` [Example 17, 5-Methoxy-2-methyl-1-[4-(4-pyrrolidin-1-ylbut-1-ynyl)phenyl]-1H-indole], the concentration for half-maximal inhibition (IC50) in assay [1] is less than 100 nM.
On to `COc1ccc2c(ccn2-c2ccc(OCCCN3CCCC3)cc2)c1` [Example 9, 5-Methoxy-1-[4-(3-pyrrolidin-1-ylpropoxy)phenyl]-1H-indole], for which the IC50 in assay [1] is less than 1000 nM.
Still for that read-out and setting: next, `Clc1ccc2c(ccn2-c2ccc(OCCCN3CCCC3)cc2)c1` [Example 10, 5-Chloro-1-[4-(3-pyrrolidin-1-ylpropoxy)phenyl]-1H-indole]: less than 1000 nM.
For `c1ccc2c(c1)cc(C1CC1)n2-c1ccc(OCCCN2CCCC2)cc1` [Example 37, 2-Cyclopropyl-1-[4-(3-pyrrolidin-1-ylpropoxy)phenyl]-1H-indole], in assay [1], the IC50 is less than 100 nM.
Regarding `S=C(NC1CCCCC1)N1CCC(c2cnc[nH]2)CC1` [thioperamide], in assay [2], the “synthesis and release of histamine” value is “increase”. Moreover, the wakefulness entry in assay [3] was “enhanced wakefulness in a dose-dependent fashion”. In assay [4], the “slow-wave and REM sleep” value is on record as “decrease”; the wakefulness result was “increase wakefulness”. Moreover, the “durations of every convulsive phase” value in assay [5] (after electrically-induced convulsions) is “significantly and dose-dependently decrease”. For the same molecule, the electroconvulsive threshold entry in assay [5] (in vivo) is listed as “increase”.
Consider `COc1cc(-n2c(C)cc3ccccc32)ccc1OCCCN1CCCC1` [Example 14, 1-[3-Methoxy-4-(3-pyrrolidin-1-ylpropoxy)phenyl]-2-methyl-1H-indole], for which the IC50 in assay [1] was less than 1000 nM.
On to `C[C@@H](N)Cc1cnc[nH]1` [RAMHA], for which, in assay [3] (oral administration), the “deep slow wave sleep” value was “significant increase”.
`Clc1cccc2c1ccn2-c1ccc(OCCCN2CCCC2)cc1` [Example 8, 4-Chloro-1-[4-(3-pyrrolidin-1-ylpropoxy)phenyl]-1H-indole]: the half-maximal inhibitory concentration (IC50) in assay [1] was less than 1000 nM.
As to `Brc1ccc2c(ccn2-c2ccc(OCCCN3CCCC3)cc2)c1` [Example 7, 5-Bromo-1-[4-(3-pyrrolidin-1-ylpropoxy)phenyl]-1H-indole], the concentration for half-maximal inhibition (IC50) in assay [1] is less than 1000 nM.
On the same count and under the same terms, next, `Cc1ccc2c(ccn2-c2ccc(OCCCN3CCCC3)cc2)c1` [Example 6, 5-Methyl-1-[4-(3-pyrrolidin-1-ylpropoxy)phenyl]-1H-indole]: less than 1000 nM; `Cc1cc2ccccc2n1-c1ccc(OCCCN2CCCC2)c(Cl)c1` [Example 15, 1-[3-Chloro-4-(3-pyrrolidin-1-ylpropoxy)phenyl]-2-methyl-1H-indole]: less than 1000 nM; `COc1ccc2c(c1)cc(C)n2-c1ccc(OCCCN2CCCC2)cc1` [Example 5, 5-Methoxy-2-methyl-1-[4-(3-pyrrolidin-1-ylpropoxy)phenyl]-1H-indole]: less than 100 nM.
With `COCc1cc2cc(OC)ccc2n1-c1ccc(OCCCN2CCCC2)cc1` [Example 42, 5-Methoxy-2-methoxymethyl-1-[4-(3-pyrrolidin-1-ylpropoxy)phenyl]-1H-indole], the Ki in assay [6] was less than 10 nM.
`COCCc1cc2ccccc2n1-c1ccc(OCCCN2CCCC2)cc1` [Example 40, 2-(2-Methoxyethyl)-1-[4-(3-pyrrolidin-1-ylpropoxy)phenyl]-1H-indole]: the Ki in assay [6] is less than 10 nM.
